Experimental data: patent publication US4877746A, “Methods of carrying out assays for lipoproteins and apolipoproteins” (Pharmacia AB, priority 1985, dated 1989)
Where a name gives a salt, the structure may show the parent alone.

What was measured:
apo(a) = test: Immunoassay (sandwich, mouse antiapo(a) 125I) of apo(a) in serum after pretreatment at acidic and alkaline pH; type: binding; details: for apo(a) concentration read off after alkaline pretreatment: alkaline pH; for apo(a) concentration read off after alkaline pretreatment / apo(a) concentration read off after acidic pretreatment: 1:1 with serum, RT; for apo(a) concentration read off after acidic pretreatment: acidic pH, 20 h
Method: (a) Alkaline pH. Equal volumes of serum and 0.13 M NaOH were mixed and incubated at room temperature (=RT) for 2 hours, whereupon phosphate buffer I was added up to an 18-fold dilution of the sample.
(b) Acidic pH. Equal volumes of serum and 0.2 M HCl were mixed and incubated at RT for 20 hours, whereupon phosphate buffer I was added up to an 18-fold dilution of the sample.
(c) Alkaline buffer system. Equal volumes of serum and 0.2 M trisodium phosphate were mixed and incubated at RT for 1 hour, whereupon phosphate buffer I was added up to an 18-fold dilution of the sample.
(§1) 50 μl from the reaction mixture of step 1 was diluted according to the dilution scheme 1/18-1/54-1/162-[…]-1/1458-1/4374. Each dilution was mixed with 50 μl of mouse antiapo(a) ^125 I and incubated for 1 hour at RT, whereupon 50 μl of goat antiapo(a) was added. The reaction mixture was kept standing for 0.5 hours at RT. This was followed by precipitation of the resultant complex with the aid of solid-phase-bound anti-antibodies (2 ml Decanting Suspension, 0.5 hr and RT). The suspension was centrifuged, the supernatant then being removed by decantation and discarded.
In separation experiments goat antiapo(a) was replaced with sheep antiapo(a) and monoclonal antiapo(a). These antibodies were tested in soluble as well as in solid-phase-bound form. Decanting suspension was excluded when solid-phase-bound antiapo(a)s were used.

Lp(a) = test: Sandwich immunoassay (method 1.2) of serum after prior art delipidating pretreatment, tracer uptake; type: binding
Method: as §1
Equal volumes of serum and pretreating solution were mixed and incubated for 2-16 hours, whereupon the sample was diluted 20-fold with phosphate buffer I. The testing method according to 1.2 was then applied to the reaction solutions. […]
The results are presented as % binding of total amount of tracer added

[1] = dilution 1/20, first concentration: SDS 0.5%, urea 4 M, guanidine HCl 2 M, Triton 2%, Renex 1%, lipase 500 U/l
[2] = dilution 1/20, second concentration: SDS 2.5%, urea 6 M, guanidine HCl 6 M, Triton 10%, Renex 5%, lipase 100 U/l
[3] = dilution 1/60, first concentration: SDS 0.5%, urea 4 M, guanidine HCl 2 M, Triton 2%, Renex 1%, lipase 500 U/l
[4] = dilution 1/60, second concentration: SDS 2.5%, urea 6 M, guanidine HCl 6 M, Triton 10%, Renex 5%, lipase 100 U/l
[5] = dilution 1/180, first concentration: SDS 0.5%, urea 4 M, guanidine HCl 2 M, Triton 2%, Renex 1%, lipase 500 U/l
[6] = dilution 1/180, second concentration: SDS 2.5%, urea 6 M, guanidine HCl 6 M, Triton 10%, Renex 5%, lipase 100 U/l
[7] = dilution 1/540, first concentration: SDS 0.5%, urea 4 M, guanidine HCl 2 M, Triton 2%, Renex 1%, lipase 500 U/l
[8] = dilution 1/540, second concentration: SDS 2.5%, urea 6 M, guanidine HCl 6 M, Triton 10%, Renex 5%, lipase 100 U/l

% binding of total amount of tracer added (uptake) (Lp(a); [1]) [%]	% binding of total amount of tracer added (uptake) (Lp(a); [2]) [%]	% binding of total amount of tracer added (uptake) (Lp(a); [3]) [%]	% binding of total amount of tracer added (uptake) (Lp(a); [4]) [%]	% binding of total amount of tracer added (uptake) (Lp(a); [5]) [%]	% binding of total amount of tracer added (uptake) (Lp(a); [6]) [%]	% binding of total amount of tracer added (uptake) (Lp(a); [7]) [%]	% binding of total amount of tracer added (uptake) (Lp(a); [8]) [%]	Compound	apo(a) concentration read off after acidic pretreatment (apo(a); 0.2 M pretreating solution) [U/l]	further results
								[Na+].[OH-] [NaOH, sodium hydroxide]		uptake on increased treatment time (apo(a); 0.13 M NaOH, longer treatment time, given dilution): the uptake was lowered; apo(a) concentration read off after alkaline pretreatment (apo(a); 0.13 M pretreating solution, 2 h): 333 U/l; effectiveness of pretreatment (apo(a); sodium hydroxide solution versus hydrochloric acid solution): far more effective than a hydrochloric acid solution
10.0	9.6	5.4	5.3	3.6	3.8	3.2	3.1	NC(N)=O [UREA, Urea]		
								Cl [HCl, hydrochloric acid]	41.0	
								O=P([O-])([O-])[O-].[Na+].[Na+].[Na+] [Na3 PO4, trisodium phosphate]		apo(a) concentration read off after alkaline pretreatment (apo(a); 0.2 M pretreating solution, 1 h): 354 U/l
								O=C(O)CC(O)(CC(=O)O)C(=O)O [citric acid]	25.2	
								O=P(O)(O)O [H3 PO4]	28.4	
10.0	10.7	5.6	6.3	3.6	4.1	3.1	3.3	N=C(N)N [GUANIDINE HCl, Guanidine - HCl]		

Compound	% binding of total amount of tracer added (uptake) (Lp(a); [1]) [%]	% binding of total amount of tracer added (uptake) (Lp(a); [2]) [%]	% binding of total amount of tracer added (uptake) (Lp(a); [3]) [%]	% binding of total amount of tracer added (uptake) (Lp(a); [4]) [%]	% binding of total amount of tracer added (uptake) (Lp(a); [5]) [%]	% binding of total amount of tracer added (uptake) (Lp(a); [6]) [%]	% binding of total amount of tracer added (uptake) (Lp(a); [7]) [%]	% binding of total amount of tracer added (uptake) (Lp(a); [8]) [%]	apo(a) concentration read off after acidic pretreatment (apo(a); 0.2 M pretreating solution) [U/l]	further results
CCCCCCCCCCCCOS(=O)(=O)[O-].[Na+] [SDS, sodium dodecyl sulfate]	10.1	18.8	5.3	13.3	3.6	7.0	3.0	4.5		
